In PubChem BioAssay (NCI) one finds GI50 and TGI data, which are given here for 8 compounds.

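Growth conditions: 96-well plates. Treatment: test compound, 48 hours, 5 concentrations. Analysis: linear interpolation between bracketing concentrations; unreached endpoints set to highest concentration. GI50 marks 50% less growth. TGI: total growth inhibition.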

Assay in all cases: NCI tumour cell line growth inhibition, 48 h
Assay [1] deals with M14 melanoma.
The subject of assay [2] is SF-295 CNS.
The test system of assay [3] is NCI-H23 lung.
In assay [4] the test system is CAKI-1 renal.
For assay [5], the system named is SN12C renal.
The test system of assay [6] is U251 CNS.
In assay [7] the test system is 786-0 renal.
Assay [8] has as its system K-562 leukemia.
Assay [9] relates to SNB-19 CNS.
The subject of assay [10] is MOLT-4 leukemia.

`N.N.NCCCCCCCCCN.O=C([O-])CC(=O)[O-].O=C([O-])CC(=O)[O-].[Pt+4].[Pt+4]`: the GI50 was 50.5 µM in assay [1]; more than 100 µM in assay [2]; more than 100 µM in assay [3]; 22.3 µM in assay [4]; 67.5 µM in assay [5]; 95.2 µM in assay [6]. The GI50 in [7] was 85.8 µM; in assay [8], more than 100 µM; in assay [9], more than 100 µM; in assay [10] it was more than 100 µM. Further, the TGI is more than 100 µM in assay [1]; more than 100 µM in [2]; more than 100 µM in assay [3]; 91.1 µM in assay [4]; more than 100 µM in assay [5]; more than 100 µM in assay [6]. The TGI in [7], in assay [8], in [9] and in assay [10] was more than 100 µM throughout.
Turning to `O=C(NCc1ccc(S(=O)(=O)c2cc(F)cc(F)c2)cc1)c1ccc2nccn2c1`, the GI50 was less than 0.0108 µM in [1]; 15.8 µM in [2]; more than 48.7 µM in assay [3]; more than 43.3 µM in assay [4]; less than 0.01 µM in [5]; 6.01 µM in [6]. The GI50 was 30.7 µM in assay [7], 0.0103 µM in assay [8], 2.56 µM in assay [9] and more than 27.2 µM in assay [10]. Besides, the TGI in assay [1] is more than 100 µM; in assay [2], more than 95.3 µM; in [3], more than 100 µM; in assay [4], more than 100 µM; in assay [5], more than 100 µM; in [6], more than 56.7 µM. The TGI in [7], in assay [8], in assay [9] and in assay [10] was more than 100 µM throughout.
In the case of `N#Cc1ccc(OC(=O)Nc2ccc(Cl)c(Cl)c2)cc1`, the GI50 was 4.3 µM in assay [1]; 2.54 µM in assay [2]; 2.79 µM in assay [3]; 3.4 µM in assay [4]; 3.09 µM in assay [5]; 3.04 µM in assay [6]. Also, the GI50 was 4.83 µM in assay [7], 3.4 µM in [8], 3.1 µM in assay [9] and 3.71 µM in assay [10]. Further, the TGI in assay [1] was found to be 59 µM; in [2], 7.64 µM; in [3] it was 13.7 µM; in [4], 18.2 µM; in [5], 25.8 µM; in [6] it was 23.2 µM. Also, the TGI in assay [7] is 61.2 µM; in assay [8], more than 100 µM; in assay [9] it was more than 100 µM; in assay [10], 27.8 µM.
With `Nc1nc(N)nc(CCCc2nc(N)nc(N)n2)n1`, the TGI in assay [1], in assay [2], in [3], in assay [4], in assay [5] and in [6] was more than 100 µM throughout. The TGI in assay [7], in assay [8], in assay [9] and in assay [10] was more than 100 µM each time.
As to `Nc1ccccc1SC1CC(=O)N(c2ccc(Cl)c(Cl)c2)C1=O` (stereo not given), the GI50 in assay [1] is 40.4 µM; in [2], 10.1 µM; in [3], 23.8 µM; in assay [4], 21.7 µM; in assay [5] it was 28.5 µM; in [6], 21.1 µM. The GI50 in assay [7] was 27.3 µM; in [8], 15 µM; in assay [9] it was 31.6 µM; in assay [10], 7.7 µM. Moreover, the TGI in assay [1], in assay [2], in assay [3], in [4], in [5] and in assay [6] was more than 100 µM in each case. Besides, the TGI is 90.3 µM in assay [7], more than 100 µM in [8], more than 100 µM in assay [9] and more than 100 µM in assay [10].
`Cc1nn(C(=O)c2ccc(Cl)cc2)c2c1C(c1ccc(O)cc1)SC(N)=N2` (stereo not given): the TGI in assay [1], in [2], in [3], in assay [4], in assay [5] and in assay [6] was more than 10 µM in each case. Moreover, the TGI in [7], in assay [8], in assay [9] and in assay [10] was more than 10 µM in each case.
`[F][Sn]([F])([c]1ccccc1)[c]1ccccc1`: the GI50 is 2.08 µM in assay [1]; 1.99 µM in [2]; 1.85 µM in assay [3]; 1.32 µM in assay [4]; 1.68 µM in assay [5]; 1.63 µM in assay [6]. The GI50 in assay [7] was 1.57 µM; in assay [8], 0.702 µM; in assay [9], 2.25 µM; in assay [10], 1.17 µM. Further, the TGI in assay [1] came to 4.45 µM; in [2], 3.85 µM; in [3], 3.7 µM; in [4], 3.22 µM; in assay [5], 3.18 µM; in assay [6], 3.05 µM. The TGI in assay [7] was 2.98 µM; in assay [8], 4.96 µM; in assay [9] it was 5.58 µM; in [10] it was 5.22 µM.
Turning to `C[C@H]1CCC/C=C/[C@@H]2C[C@H](O)C[C@H]2[C@H](O)[C@@H](SCC(O)CO)CC(=O)O1` (stereo not given in full), the GI50 in assay [1] is 12.4 µM; in assay [2] it was 43.8 µM; in [3], 17.8 µM; in assay [4], 31.7 µM; in assay [5] it was 34.3 µM; in assay [6], 42.3 µM. Moreover, the GI50 in assay [7] was 2.75 µM; in assay [8], 40.3 µM; in [9], 27.1 µM; in [10], 27.1 µM. The TGI in [1] is more than 100 µM; in assay [2], more than 100 µM; in assay [3] it was 60.5 µM; in assay [4], 67.6 µM; in assay [5], more than 100 µM; in assay [6], more than 100 µM. In addition, the TGI in assay [7] is 15 µM; in assay [8] it was more than 100 µM; in [9], 70.9 µM; in assay [10], 84.3 µM.
